ChEMBL document CHEMBL1155011, “Structure-activity relationships of the cycloalkanol ethylamine scaffold: discovery of selective norepinephrine reuptake inhibitors” (J Med Chem, 2008)

Experiments:
[1] = biological target: T1, Sodium-dependent serotonin transporter (Homo sapiens, UniProt P31645); test: Inhibition of 5HT uptake at human SERT expressed in human JAR cells at 1000 nM; assay type: cell-based
Target sequence in this assay (P31645 whole entry, looked up): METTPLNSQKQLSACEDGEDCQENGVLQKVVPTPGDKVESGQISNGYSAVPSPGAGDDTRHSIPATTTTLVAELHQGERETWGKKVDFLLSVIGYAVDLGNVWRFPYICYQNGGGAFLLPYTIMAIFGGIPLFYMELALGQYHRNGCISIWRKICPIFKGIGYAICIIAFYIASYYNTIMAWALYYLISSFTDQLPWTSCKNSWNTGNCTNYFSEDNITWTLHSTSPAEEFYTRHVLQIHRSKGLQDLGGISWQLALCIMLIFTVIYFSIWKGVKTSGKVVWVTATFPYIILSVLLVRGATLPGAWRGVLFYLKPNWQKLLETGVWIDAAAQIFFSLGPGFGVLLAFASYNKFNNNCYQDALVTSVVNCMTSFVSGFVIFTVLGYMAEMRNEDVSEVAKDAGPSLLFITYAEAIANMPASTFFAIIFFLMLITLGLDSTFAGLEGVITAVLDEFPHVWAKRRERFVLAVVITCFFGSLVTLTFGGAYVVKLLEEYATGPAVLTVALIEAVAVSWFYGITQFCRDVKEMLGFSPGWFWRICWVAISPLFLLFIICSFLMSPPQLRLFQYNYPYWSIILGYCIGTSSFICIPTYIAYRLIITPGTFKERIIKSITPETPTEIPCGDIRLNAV

[2] = biological target: T2, Sodium-dependent dopamine transporter (Homo sapiens, UniProt Q01959); test: Displacement of [3H]WIN-35428 from human recombinant dopamine transporter expressed in CHO cells at 1000 nM; assay type: cell-based
T2 sequence (Q01959 whole entry): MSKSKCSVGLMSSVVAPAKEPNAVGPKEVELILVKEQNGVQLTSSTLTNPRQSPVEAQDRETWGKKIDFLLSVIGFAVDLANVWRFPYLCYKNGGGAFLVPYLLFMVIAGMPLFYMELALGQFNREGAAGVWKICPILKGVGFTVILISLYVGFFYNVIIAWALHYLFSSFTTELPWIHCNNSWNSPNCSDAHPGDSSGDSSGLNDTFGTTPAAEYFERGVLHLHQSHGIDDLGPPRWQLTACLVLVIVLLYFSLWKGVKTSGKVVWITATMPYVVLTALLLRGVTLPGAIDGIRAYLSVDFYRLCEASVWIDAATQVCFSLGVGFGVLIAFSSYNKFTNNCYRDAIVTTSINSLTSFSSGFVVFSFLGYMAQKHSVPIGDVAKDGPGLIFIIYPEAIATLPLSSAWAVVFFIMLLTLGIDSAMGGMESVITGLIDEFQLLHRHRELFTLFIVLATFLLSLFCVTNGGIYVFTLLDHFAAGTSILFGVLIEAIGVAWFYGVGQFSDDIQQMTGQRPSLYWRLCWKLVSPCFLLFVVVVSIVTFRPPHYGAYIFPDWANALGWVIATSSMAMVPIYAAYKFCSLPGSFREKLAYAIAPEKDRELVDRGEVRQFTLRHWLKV

[3] = biological target: T3, Sodium-dependent noradrenaline transporter (Homo sapiens, UniProt P23975); test: biochemical
T3 sequence (P23975 whole entry): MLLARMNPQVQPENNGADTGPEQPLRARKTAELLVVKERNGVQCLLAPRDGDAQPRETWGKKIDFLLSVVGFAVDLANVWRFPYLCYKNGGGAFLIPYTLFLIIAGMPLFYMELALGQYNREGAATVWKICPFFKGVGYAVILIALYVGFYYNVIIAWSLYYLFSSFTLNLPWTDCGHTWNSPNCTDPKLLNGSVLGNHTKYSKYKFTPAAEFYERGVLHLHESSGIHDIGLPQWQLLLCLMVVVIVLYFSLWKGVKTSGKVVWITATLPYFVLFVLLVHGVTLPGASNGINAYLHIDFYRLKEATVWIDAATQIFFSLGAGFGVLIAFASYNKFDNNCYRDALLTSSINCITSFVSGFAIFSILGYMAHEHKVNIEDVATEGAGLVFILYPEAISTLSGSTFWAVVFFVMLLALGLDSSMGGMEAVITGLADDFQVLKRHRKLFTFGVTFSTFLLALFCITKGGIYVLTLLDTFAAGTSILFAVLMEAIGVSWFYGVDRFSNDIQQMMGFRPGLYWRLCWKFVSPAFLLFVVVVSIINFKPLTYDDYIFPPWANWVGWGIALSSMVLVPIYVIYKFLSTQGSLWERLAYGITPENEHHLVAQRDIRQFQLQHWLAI

[4] = biological target: T3, Sodium-dependent noradrenaline transporter; test: Inhibition of norepinephrine uptake at human norepinephrine transporter expressed in MDCK-Net6 cells at 1000 nM; assay type: cell-based
[5] = biological target: T3, Sodium-dependent noradrenaline transporter
[6] = biological target: T1, Sodium-dependent serotonin transporter; assay type: cell-based, JAR
Target sequence in this assay (P31645 whole entry): as the sequence (P31645 whole entry, looked up) above

[7] = biological target: Sodium-dependent serotonin transporter (Rattus norvegicus, UniProt P31652)
Sodium-dependent serotonin transporter (Rattus norvegicus, UniProt P31652), sequence (P31652 whole entry): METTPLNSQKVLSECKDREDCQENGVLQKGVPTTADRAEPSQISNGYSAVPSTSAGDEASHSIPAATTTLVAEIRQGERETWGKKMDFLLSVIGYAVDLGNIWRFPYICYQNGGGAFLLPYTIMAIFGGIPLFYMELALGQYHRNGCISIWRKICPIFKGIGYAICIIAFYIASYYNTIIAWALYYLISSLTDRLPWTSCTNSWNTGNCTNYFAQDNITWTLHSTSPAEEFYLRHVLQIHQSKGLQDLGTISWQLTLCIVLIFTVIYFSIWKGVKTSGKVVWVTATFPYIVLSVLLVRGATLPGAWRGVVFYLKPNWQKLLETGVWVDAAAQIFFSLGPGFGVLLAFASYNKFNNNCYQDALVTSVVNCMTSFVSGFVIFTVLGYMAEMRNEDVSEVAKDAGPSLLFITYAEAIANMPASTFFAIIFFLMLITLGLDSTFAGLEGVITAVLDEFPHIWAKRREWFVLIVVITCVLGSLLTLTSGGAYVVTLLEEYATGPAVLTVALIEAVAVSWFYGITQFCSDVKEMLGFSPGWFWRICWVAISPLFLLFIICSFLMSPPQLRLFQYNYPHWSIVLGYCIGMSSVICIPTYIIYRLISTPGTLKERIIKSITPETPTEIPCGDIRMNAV
Description: Inhibition of 5HT uptake at rat brain SERT

[8] = biological target: Transporter (Rattus norvegicus, UniProt Q63380)
Transporter, sequence (Q63380 whole entry): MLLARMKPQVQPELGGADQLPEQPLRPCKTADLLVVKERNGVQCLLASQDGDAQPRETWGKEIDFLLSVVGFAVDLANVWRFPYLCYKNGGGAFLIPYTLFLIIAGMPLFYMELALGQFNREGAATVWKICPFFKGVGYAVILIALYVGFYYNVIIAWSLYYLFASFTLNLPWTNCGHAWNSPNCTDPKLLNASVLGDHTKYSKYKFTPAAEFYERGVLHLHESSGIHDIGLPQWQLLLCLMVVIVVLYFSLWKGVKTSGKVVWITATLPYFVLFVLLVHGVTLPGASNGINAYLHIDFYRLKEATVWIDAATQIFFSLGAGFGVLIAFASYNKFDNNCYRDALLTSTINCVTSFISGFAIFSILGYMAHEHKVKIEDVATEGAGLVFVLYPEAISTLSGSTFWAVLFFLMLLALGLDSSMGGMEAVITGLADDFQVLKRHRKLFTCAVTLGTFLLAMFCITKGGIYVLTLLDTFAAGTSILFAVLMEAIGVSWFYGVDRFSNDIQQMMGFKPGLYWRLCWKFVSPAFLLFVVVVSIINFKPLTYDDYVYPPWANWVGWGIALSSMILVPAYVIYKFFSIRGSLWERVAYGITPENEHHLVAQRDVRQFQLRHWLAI
Description: Inhibition of norepinephrine uptake at rat brain norepinephrine transporter

[9] = species on record: Homo sapiens; test: Selectivity ratio of IC50 for human NET over IC50 for human SERT
[10] = biological target: T2, Sodium-dependent dopamine transporter; test: biochemical
[11] = biological target: T3, Sodium-dependent noradrenaline transporter; test: Displacement of [3H]nisoxetine from human norepinephrine transporter expressed in MDCK-Net6 cells at 1000 nM; assay type: cell-based

| Structure (SMILES) | inhibition [1] [%] | Activity [2] [%] | Ki [3] [nM] | IC50 [5] [nM] | further results |
| --- | --- | --- | --- | --- | --- |
| CN1CCN(C[C@@H](c2cccc(OC(F)(F)F)c2)C2(O)CCCCC2)CC1 | 4 | 5 | – | – | – |
| CN1CCN(CC(c2ccc(Cl)cc2)C2(O)CCCCC2)CC1 (stereo unspecified) | 0 | 26 | 1220 | – | inhibition [4]: 7% |
| CN(C)C[C@@H](c1cccc(Cl)c1)C1(O)CCCCC1 | – | 17 | – | – | – |
| OC1(C(CN2CCNCC2)c2cccc(C(F)(F)F)c2)CCCCC1 (stereo unspecified) | 13 | 4 | 58 | 94 | – |
| COc1ccc(C(CN2CCN(C)CC2)C2(O)CCCCC2)cc1 (stereo unspecified) | 11 | 0 | – | – | inhibition [4]: 34% |
| CN(C)CC(c1ccccc1Cl)C1(O)CCCCC1 (stereo unspecified) | – | 9 | 125 | 205 | IC50 [6]: 177 nM; IC50 [7]: 13 nM; IC50 [8]: 640 nM; Ratio IC50 [9]: 0.86 |
| OC1(C(CN2CCNCC2)c2cccc(Cl)c2)CCCCC1 (stereo unspecified) | – | – | 18 | 38 | IC50 [6]: 4960 nM; Ki [10]: 45 nM |
| OC1([C@H](CN2CCNCC2)c2cccc(Cl)c2)CCCCC1 | – | – | 17 | 25 | IC50 [6]: 2670 nM; Ki [10]: 135 nM |
| CN1CCN(CC(c2ccccc2F)C2(O)CCCCC2)CC1 (stereo unspecified) | – | – | – | – | Activity [11]: 34%; inhibition [4]: 19% |
| OC1(C(CN2CCNCC2)c2ccc(Cl)cc2)CCCCC1 (stereo unspecified) | – | 35 | 717 | – | IC50 [6]: 1520 nM; inhibition [4]: 29% |
| COc1cccc(C(CN2CCNCC2)C2(O)CCCCC2)c1 (stereo unspecified) | 8 | 2 | 745 | 870 | – |
| CN1CCN(CC(c2cccc(Cl)c2)C2(O)CCCCC2)CC1 (stereo unspecified) | – | – | 46 | 58 | IC50 [6]: 18800 nM; Ki [10]: 53 nM |
| CN1CCN(CC(c2cccc(OC(F)(F)F)c2)C2(O)CCCCC2)CC1 (stereo unspecified) | 12 | 3 | – | – | – |
| CN1CCN(C[C@@H](c2cccc(Cl)c2)C2(O)CCCCC2)CC1 | 0 | – | 187 | 577 | Ki [10]: 235 nM |
| CN1CCN(CC(c2ccc(F)cc2)C2(O)CCCCC2)CC1 (stereo unspecified) | 32 | 0 | 1380 | 1450 | – |
| OC1(C(CN2CCNCC2)c2cccc(F)c2)CCCCC1 (stereo unspecified) | 12 | 22 | 368 | 673 | – |
| CN1CCN(CC(c2cccc(F)c2)C2(O)CCCCC2)CC1 (stereo unspecified) | 12 | 29 | 364 | 240 | – |
